Measured values as given in paper PMC6389928, “Biomolecular Interaction, Anti-Cancer and Anti-Angiogenic Properties of Cobalt(III) Schiff Base Complexes” (Scientific Reports, 2019).
pIC50: −log10 of the molar value. Read-outs that look alike come from different tables or passages of the source.

Key:
[1] = biological target: BSA (Bos taurus, UniProt P02769); details: for Quenching Constant (kq): τ0 assumed 10^−8 s; for ∆G° / ∆H° / ∆S°: BSA binding; for ∆H° / ∆S°: van't Hoff plot 285-299 K
Protocol: The obtained fluorescence quenching results were analyzed using the Stern-Volmer eqation, F0/F=1+Ksv[Q]kq=Ksv/τ0 where F0 and F are the fluorescence emission intensities of BSA in the absence and presence of complexes 1 and 2. KSV is the Stern-Volmer quenching constant, [Q] is concentration of the complexes 1 and 2, kq is the quenching rate constant of BSA and τ0 is the average lifetime of the emitter in the absence of quencher. The above equation was applied to determine KSV by linear regression of a plot of F0/F against [Q].
Normally, quenching can take place either as dynamic quenching, static quenching or a combination of both mechanisms. Static quenching refers to fluorophore-quencher complex formation in the ground state while dynamic quenching refers to a process in which the fluorophores and the quencher come into contact during the transient existence of the excited state[57],[58]. The plots of F0/F versus [Q]
For the static quenching process, the binding constant (Kb) and the number of binding sites (n) can be determined by the following equation[62] log[(F0−F)]/F=logKb+nlog[Q] where F0 and F are the fluorescence intensities of the emitter in the absence and presence of the quencher, respectively, and [Q] the concentration of the quencher. Thus, a plot of log F0 − F/F versus log [Q] (Fig. 3) was used to determine Kb.
In general, intermolecular interacting forces between a small molecule and a biomacromolecule include hydrogen bonding, van der Waals force, and electrostatic and hydrophobic interactions. The thermodynamic parameters, enthalpy change (ΔH°) and entropy change (ΔS°) of the binding are important for confirming the binding mode. For this reason, these thermodynamic parameters have been calculated using the equation, lnKb=−ΔH°/RT+ΔS°/RΔG°=ΔH°−TΔS°=−RTInKb where Kb is the binding constant at the corresponding temperature, and R is the gas constant. The ΔH° and ΔS° values are calculated from the slope and intercept from plotting ln Kb versus 1/T (Fig. 3).
The concentration of BSA prepared in PBS buffer (pH = 7.4) was determined spectrophotometrically using the extinction coefficient of 43,800 M^−1 cm^−1 at 280 nm[80]. The fluorescence spectra of BSA were recorded at room temperature with an excitation wavelength of BSA at 280 nm and the emission at 350 nm by keeping the concentration of BSA constant (1.35 × 10^−[…]) while increasing the cobalt(III) complex concentration regularly.

[2] = system: A549 lung carcinoma cell; assay: MTT assay on A549 cells; details: A549 cell, 24 h
From the text: The anti-proliferative property of the complexes 1 and 2 at different concentrations on A549 lung carcinoma cell and monkey kidney epithelial cell Vero was examined by adopting MTT assay (Fig. S7). […] The naked cobalt acetate and ligands salen and salophen were separately tested on A549 cells to understand if metal chelation is the principal basis of the anticancer activity of the complexes.
Culture: Human lung cancer cells (A549) were received from National Centre for Cell Science (NCCS) Pune, India. Vero cells were obtained from ATCC. The cells were grown at humidified atmosphere of 5% CO2 in an incubator at 37 °C (Forma, Thermo Scientific, USA) in DMEM medium (Invitrogen) containing 10% FBS (Sigma-Aldrich, St. Louis, Mo, USA), 100 μg/mL of penicillin and 100 μg/mL streptomycin were used as antibiotics (Himedia, Mumbai, India). […] The cells were seeded in 96 well plates (5000 A549 cells per well) and allowed to attach for 24 h. The cells were then incubated with different concentrations of the metal complexes 1 and 2 dissolved in 100% dimethyl sulfoxide (DMSO) (Sigma-Aldrich) and prepared to a final dilution of 0.02% of DMSO.
In the determination of IC50 value, 0.02% DMSO was used as the solvent control. After the end of incubation period (24 h), the medium was aspirated carefully and replaced with new medium. The formazan formed was dissolved in100 μL of 100% DMSO to each well. The absorbance was monitored at 570 nm using a 96 well plate reader (Bio-Rad, Hercules, California, USA). All experiments were repeated for a minimum of three times when each experiment was done in two replicates.

[3] = system: A549 cells; details: A549, respective IC50 concentrations, 24 h
Protocol: AO/EB Staining of A549 cells: The mode of cell death induced by the complexes was deciphered using acridine orange (AO) and ethidium bromide (EB) staining protocol. Cells were cultured in 6 well plates, treated with the complexes and allowed for 24 h. Then the cells were incubated with AO and EB solutions (1 part of 100 μg/mL AO and 1 part of 100 μg/mL of EB in PBS) and examined in a fluorescent microscope (Carl Zeiss, Jena, Germany) using a UV filter (450–490 nm). Three hundred cells per sample were counted in triplicate for each dose point. The cells were scored as viable, apoptotic and necrotic as judged by the staining pattern, nuclear morphology and cytoplasmic integrity. The percentage of apoptotic and necrotic cells were calculated and the morphological changes were also photographed.

Chain of BSA (P02769 25-607): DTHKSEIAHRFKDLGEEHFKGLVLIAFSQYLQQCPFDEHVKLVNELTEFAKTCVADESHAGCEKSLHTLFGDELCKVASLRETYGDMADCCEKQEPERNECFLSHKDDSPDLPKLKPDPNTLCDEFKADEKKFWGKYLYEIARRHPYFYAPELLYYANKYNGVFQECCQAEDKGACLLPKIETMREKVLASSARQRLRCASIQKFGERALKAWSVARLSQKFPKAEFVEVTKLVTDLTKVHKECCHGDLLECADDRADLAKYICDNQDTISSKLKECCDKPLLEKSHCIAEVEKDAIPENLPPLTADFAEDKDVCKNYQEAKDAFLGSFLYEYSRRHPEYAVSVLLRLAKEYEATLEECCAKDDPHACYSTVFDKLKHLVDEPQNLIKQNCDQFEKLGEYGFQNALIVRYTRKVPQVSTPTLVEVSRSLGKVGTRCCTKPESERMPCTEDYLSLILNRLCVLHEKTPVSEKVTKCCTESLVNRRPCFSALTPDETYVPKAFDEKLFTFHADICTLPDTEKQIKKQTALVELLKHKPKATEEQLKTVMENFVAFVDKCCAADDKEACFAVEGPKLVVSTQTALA

| SMILES | Quenching Constant (kq) ([1]; 285 K) | Quenching Constant (kq) ([1]; 292 K) | Quenching Constant (kq) ([1]; 299 K) | ∆G° ([1]; 285 K) | ∆G° ([1]; 292 K) | ∆G° ([1]; 299 K) | ∆H° [1] | ∆S° [1] | pIC50 [2] | mode of cell death (AO/EB staining) [3] |
| --- | --- | --- | --- | --- | --- | --- | --- | --- | --- | --- |
| CCCCCCCCCCCC[NH2+][Co-3]123([NH2+]CCCCCCCCCCCC)[O]c4ccccc4C=[N+]1CC[N+]2=Cc1ccccc1[O]3.[O-][Cl+3]([O-])([O-])[O-] [Complex 1, trans-[Co(salen)(DA)2](ClO4)] | 1.6763 10^13 M^−1 s^−1 | 1.3531 10^13 M^−1 s^−1 | 1.0862 10^13 M^−1 s^−1 | -6.238 kcal/mol | -6.7008 kcal/mol | -7.4297 kcal/mol | +69.429 kJ mol^−1 | +335.928 J mol^−1 K^−1 | 4.10 | most of the cells succumbed to apoptosis and a few to necrosis |
| CCCCCCCCCCCC[NH2+][Co-3]123([NH2+]CCCCCCCCCCCC)[O]c4ccccc4C=[N+]1c1ccccc1[N+]2=Cc1ccccc1[O]3.[O-][Cl+3]([O-])([O-])[O-] [Complex 2, trans-[Co(salophen)(DA)2](ClO4)] | 1.4802 10^13 M^−1 s^−1 | 1.2245 10^13 M^−1 s^−1 | 1.0114 10^13 M^−1 s^−1 | -5.6506 kcal/mol | -6.0217 kcal/mol | -6.9336 kcal/mol | +85.617 kJ mol^−1 | +383.182 J mol^−1 K^−1 | 4.19 | most of the cells succumbed to apoptosis and a few to necrosis |
